The text below walks through data of patent publication US9808425B2, “Targeted liposomes in cancer therapy” (WESTERN UNIVERSITY OF HEALTH SCIENCES, priority 2011, dated 2017).

This assay deals with A549 cells. The assay is described as follows: DNR-mediated cytotoxicity, MTS assay. It is filed as cell-based. Particulars: Homo sapiens, A549, 72 h, read-out: IC50 AVG. The method, then: Because DNR is a cytotoxic compound, the effectiveness of cystine liposomal DNR as an intracellular delivery system was assessed by relying on cytotoxicity measurements as a measure of DNR uptake. […] Cytotoxicity was measured in A549 cells following the addition of the aforementioned DNR formulations to the cells followed by an incubation period, and determination of cytotoxicity by using a MTS assay. Briefly, an MTS assay is a non radioactive cell proliferative assay of a tetrazolium compound (3-(4,5-dimethylthiazol-2-yl)-5-(3-carboxymethoxyphenyl)-2-(4-sulfophenyl)-2H-tetrazolium, inner salt; MTS) and the electron coupling reagent, phenazine methosulfate (PMS). MTS is bio-reduced by cells to a formazan compound by a reductase enzyme present in metabolically active cells. The absorbance of the formazan compound can be measured at 490 nm wavelength and is directly proportional to the number of living cells. The toxicity was determined using dose response curve to determine IC50. IC50 is the concentration of the test compound required to reduce light absorbance capacity of the cells by 50%.
MTS reagent was prepared by mixing 20% MTS and 1% PMS solution in RPMI 1640 medium of volume 8 ml. […] The amount of formazan was measured at 490 nm wavelength. […]
In general terms: Tetrazolium assays rely on reduction of a dye to a coloured formazan, in cell work by metabolically active cells.

In the case of `COc1cccc2c1C(=O)c1c(O)c3c(c(O)c1C2=O)C[C@@](O)(C(C)=O)C[C@@H]3O[C@H]1C[C@H](N)[C@H](O)[C@H](C)O1` [Free DNR, daunorubicin], the IC50 – broadly, the concentration that gives 50% inhibition – was 15.2 µM.
